Values after ≈ are worked out from the molar mass of the structure shown.
Legend:
GPVI = target: T1, GPVI (Homo sapiens, UniProt Q9HCN6); assay: label-free biophysical binding assay based on dynamic mass redistribution (DMR), immobilized GPVI; conditions: for interaction with GPVI, Mean: DMR response; for interaction profile with GPVI (in words): concentration-response
T1 sequence (Q9HCN6 21-267 limits assumed): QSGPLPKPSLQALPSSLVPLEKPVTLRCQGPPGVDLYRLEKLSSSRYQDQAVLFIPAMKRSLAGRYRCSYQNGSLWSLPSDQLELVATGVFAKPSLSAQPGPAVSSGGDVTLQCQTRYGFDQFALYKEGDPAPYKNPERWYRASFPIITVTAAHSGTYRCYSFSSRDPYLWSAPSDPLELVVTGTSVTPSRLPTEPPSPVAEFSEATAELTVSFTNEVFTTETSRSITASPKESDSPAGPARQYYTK
Text: A biophysical assay to test direct interaction with GPVI was developed by using a label-free methodology based on dynamic mass redistribution (DMR).
This protocol consists of immobilizing the target protein in a surface by chemical means and then measure the refractory index of a light directed to the bottom of the surface, which contains a sensor. It has been used previously for other targets to determine the potency of ligands such as peptides and molecules [Akhter et al., (2017) and Álvarez-Coiradas et al., (2020)].
Briefly, EnSpire LFB high sensitivity plates (PerkinElmer 6057460, USA) were activated with 400 mM EDC (N-(3-dimethylaminopropyl)-N'- ethylcarbodiimide hydrochloride) (Sigma Aldrich, UK) and 100 mM sulfo-NHS (sulfo-N-hydroxysulfosuccinimide) (Thermo Fisher, USA) diluted in ultrapure water for 30 min at room temperature. Microplates were subsequently washed with ultrapure water. GPVI protein was immobilized (25 µg/ml) in 20 mM sodium acetate buffer, pH 5.5. After an overnight incubation at 4 °C, the microplate was wa- shed with PBS with 0.005% Tween-20, pH 7.4 (assay buffer). Baseline was read after three hours on EnSpireTM 2300 Multilabel Plate Reader (PerkinElmer, Singapore). Compounds were added to the microplate, incubated for 1 h and the final read was performed in the EnSpireTM 2300 Multilabel Plate Reader. Recombinant CRP and assay buffer were employed as a positive and a negative control, respectively.
Compounds were assayed by means of concentration-response curves with concentrations between 100 µM and 0.4 µM (1:3 serial dilutions in triplicates), while CRP was assayed similarly starting with 7µg/ml top dose and a total of 6 concentrations (1:2 serial dilutions in triplicates). Response (pm) was obtained by subtracting the baseline measurement from the final read.

physchem = conditions: 37 °C, aqueous buffer, kinetic from dmso stock
Experimental: (§5) Solubility was determined by nephelometry to assess its potential impact on the bioassays at active concentrations.
(§6) Then, said compounds were incubated for 2 hours at 37°C and read in a NEPHELOstar Plus (BMG LABTECH).

human platelets [1] = assay: intracellular Ca+2 mobilization assay, CRP-activated washed platelets (FLIPR Calcium 4); type: cell-based; conditions: Platelet, calcium mobilization in human platelets, read-out: % Inhibition of CRP effect at 1µM, Mean
Experimental: An intracellular Ca^+2 mobilization assay was used to test the activity of the ligands in platelets. This assay measures the changes in calcium in real time by fluorophore dye Calcium 4, providing a useful way to characterize platelet activation by GPVI signaling [Barrachina et al. (2021)].
Washed platelets (5x10E6) were incubated with FLIPR Calcium 4 reagent (Molecular Devices LLC, San Jose, CA, USA) in a 384-well transparent bottom plate (Greiner Bio-One International GmbH, Kremsmünster, Austria) and supplemented with Probenecid (Invitrogen™, Carlsbad, CA, USA) 0.07% for 1 h at 37 °C. Platelets were co-incubated for 10 min with the tested compounds and inhibitors of secondary mediators (2 U/mL apyrase and 10 microM indomethacin (Sigma-Aldrich, Saint Louis, MO, USA)) under nonaggregating conditions (9 microM eptifibatide (Cayman Chemicals, Ann Arbor, MI, USA)). Then, the GPVI-specific agonist Collagen-Related Peptide (CRP) was added to the platelet suspension at different doses. Both potential GPVI inhibitors and CRP were automatically dispensed by FDSS7000EX Functional Drug Screening System (Hamamatsu Photonics, Hamamatsu, Japan). Intracellular Ca^2+ mobilization was assessed by measuring fluorescence changes ([…] wavelengths) in real time for 15 min after the addition of the agonist. 100% was expressed as maximal Ca^2+ release in platelets treated with the agonist CRP. To determine IC50, compounds were tested at 9 different concentrations in duplicates starting from 10 uM and performing 1:3 serial dilutions. The analysis of the data was performed with GraphPad Prism® software (version 6.0e, March 2014) (GraphPad Software, San Diego, CA, USA) by carrying out a nonlinear regression fit for log(inhibitor) vs. relative CRP activity using a Hill slope of -1, and top and bottom constraints of 100 and 0, respectively.

human platelets [2] = assay: platelet aggregation assay, CRP-induced; type: cell-based; conditions: 10 µM; CRP 1 µg/mL; Figure 2
Experimental: Platelet aggregation assays were carried out to assess the potency of the active compounds as previously described [Barrachina et al. (2021)].
Briefly, human platelets from at least =7 healthy individuals were isolated and washed. Then, the suspension was incubated with the compounds at 10 µM at 37 ∘C for 4 min in a Chrono-log® 490-X aggregometer (Chrono-log Corporation, Havertown, PA, USA). After that, platelets were stimulated with the agonist CRP at 1 µg/mL for 5 min.

human platelets [3] = assay: platelet spreading assay on CRP (phalloidin staining, confocal microscopy); type: cell-based; conditions: 10µM; CRP 1µg/mL; Figure 4
Experimental: Platelet spreading experiments were carried out to assess the potency of the compounds of formula (I), exemplified by compounds (If)and (Ih).
Platelets can change from a rounded, non-adherent form to adhere and flatten shape when exposed to ligands. This "spreading" effect can lead to the formation of cytoskeletal protein rearrangement. Platelet adhesion and extent of spreading (area covered) can be quantified.
Briefly, human platelets from healthy individuals were isolated and washed. Then, platelets were incubated with the inhibitors at 10µM for 5 min at room temperature and then for 45 min at 37°C in coverslips coated with 1µg/mL of agonist (CRP).
The images of platelet shape given by phalloidin staining were acquired by confocal fluorescence microscopy and the area analyzed by ImageJ [Onselaer et al., (2020)].

human platelets [4] = assay: platelet aggregation selectivity assay (agonists collagen, rhodocytin, thrombin); type: cell-based; conditions: 10 µM
Experimental: In addition, an assessment of the selectivity of the active compound (Ic)at 10 µM was carried out based on aggregation assays. Briefly, human platelets from healthy individuals were isolated and washed. The agonists used in this selectivity assay were collagen, rhodocytin, and thrombin.

[5] = * from Dehring et al. (2004); cited from earlier work
[6] = solubility by nephelometry; conditions: 37 °C, aqueous buffer, kinetic from dmso stock
Experimental: as §5, §6

[7] = metabolic stability, rat microsomes; type: in vitro ADME
Experimental: (§1) Microsomes from Tebu-bio Xenotech were employed in the assay, having a content of 20 mg/ml of protein. The following quantities were added to each well of a 96-well microplate. Table 6: Metabolic stability assay.
(§2) Plates were incubated at 37°C and 75 µL samples were taken at 0, 10, 20, 40 and 60 minutes.
(§3) Samples were transferred to a microplate and 75 µl Acetonitrile + IS(Rolipram) were added for inactivating the microsomes, and 30 µl of H2O with 0.5% formic acid for improving the chromatographic conditions and kept at 4°C. When all the samples were taken the plate was centrifuged at […] for 30 min at 15°C. Stationary phase: ACQUITY BEH C18 1.7µm 2.1x50mm (Waters) Mobile phase: A: 0.1% formic; B: acetonitrile+0.1% formic acid Gradient: Table 6: UPLC gradient / Metabolic stability assay
(§4) Metabolic stability was calculated from the logarithm of the remaining compound at each of the times evaluated.

[8] = metabolic stability, human microsomes; type: in vitro ADME
Experimental: as §1, §2, §3, §4

[9] = metabolic stability, dog microsomes; type: in vitro ADME
Experimental: as §1, §2, §3, §4

[10] = metabolic stability, mouse microsomes; type: in vitro ADME
Experimental: Samples were transferred to a microplate and 75 µl Acetonitrile + IS(Rolipram) were added for inactivating the microsomes, and 30 µl of H2O with 0.5% formic acid for improving the chromatographic conditions and kept at 4°C. When all the samples were taken the plate was centrifuged at 46000 g for 30 min at 15°C. Stationary phase: ACQUITY BEH C18 1.7µm 2.1x50mm (Waters) Mobile phase: A: 0.1% formic; B: acetonitrile+0.1% formic acid Gradient: Table 6: UPLC gradient / Metabolic stability assay

O=C(Cc1ccc2c(c1)OCCO2)Nc1nc(-c2ccccc2)cs1 [Compound (Ia)]
interaction with GPVI, Mean (GPVI; Compound concentration (1µM)): 10.8 pm | interaction with GPVI, Mean (GPVI; Compound concentration (10µM)): 19.81 pm | solubility at 2 h (physchem; pbs with 1% dmso): 5.4 µM (≈ 1.9 µg/mL) | inhibition at 1 µM (human platelets [1]): 53.7%

O=C(Cc1ccc2c(c1)OCCO2)Nc1nc(-c2ccc(Cl)cc2)cs1 [Compound (Ib)]
interaction with GPVI, Mean (GPVI; Compound concentration (1µM)): 13.76 pm | interaction with GPVI, Mean (GPVI; Compound concentration (10µM)): 20.47 pm | solubility at 2 h (physchem; pbs with 1% dmso): 50 µM (≈ 19.3 µg/mL) | inhibition of platelet aggregation (in words) (human platelets [2]): consistent inhibition of platelet aggregation | platelet spreading on CRP (in words) (human platelets [3]): inhibition of platelet spreading on CRP | inhibition at 1 µM (human platelets [1]): 15.9%

O=C(Cc1ccc2c(c1)OCCO2)Nc1nc(-c2ccc(Br)cc2)cs1 [Compound (Ic)]
interaction with GPVI, Mean (GPVI; Compound concentration (1µM)): 12.37 pm | interaction with GPVI, Mean (GPVI; Compound concentration (10µM)): 25.42 pm | solubility at 2 h (physchem; pbs with 1% dmso): 51.9 µM (≈ 22.4 µg/mL) | inhibition of platelet aggregation (in words) (human platelets [2]): consistent inhibition of platelet aggregation | platelet aggregation, platelets exposed to collagen (in words) (human platelets [4]; agonist collagen): consistent inhibition of platelet aggregation | platelet aggregation induced by rhodocytin (in words) (human platelets [4]; agonist rhodocytin): unchanged | platelet aggregation induced by thrombin (in words) (human platelets [4]; agonist thrombin): unchanged | platelet spreading on CRP (in words) (human platelets [3]): inhibition of platelet spreading on CRP | inhibition at 1 µM (human platelets [1]): 34%

O=C(Cc1ccc2c(c1)OCCO2)Nc1nc(-c2ccc3c(c2)CCCC3)cs1 [Compound (Id)]
interaction with GPVI, Mean (GPVI; Compound concentration (1µM)): 17.38 pm | interaction with GPVI, Mean (GPVI; Compound concentration (10µM)): 28.66 pm | solubility at 2 h (physchem; pbs with 1% dmso): 21.9 µM (≈ 8.9 µg/mL) | inhibition at 1 µM (human platelets [1]): 36%

O=C(Cc1ccc2c(c1)OCCO2)Nc1nc(-c2ccc3ccccc3c2)cs1 [Compound (Ie)]
interaction with GPVI, Mean (GPVI; Compound concentration (1µM)): 6.50 pm | interaction with GPVI, Mean (GPVI; Compound concentration (10µM)): 25.16 pm | solubility at 2 h (physchem; pbs with 1% dmso): 22.5 µM (≈ 9.06 µg/mL) | inhibition of platelet aggregation (in words) (human platelets [2]): consistent inhibition of platelet aggregation | inhibition at 1 µM (human platelets [1]): 24.6%

C[C@H]1O[C@@H](O[C@H]2[C@@H](O)C[C@H](O[C@H]3[C@@H](O)C[C@H](O[C@H]4CC[C@@]5(C)[C@H](CC[C@@H]6[C@@H]5C[C@@H](O)[C@]5(C)[C@@H](C7=CC(=O)OC7)CC[C@]65O)C4)O[C@@H]3C)O[C@@H]2C)C[C@H](O)[C@@H]1O [Digoxin, reference compound]
Reported solubility [5]: 59.3* µM | solubility at 2 h [6]: 96.9 µM (≈ 75.7 µg/mL)

COc1cc2nc(N3CCN(C(=O)c4ccco4)CC3)nc(N)c2cc1OC [Prazosin, reference compound]
Reported solubility [5]: 26.3* µM | solubility at 2 h (physchem): 77.2 µM (≈ 29.6 µg/mL)

CC(=O)[C@H]1CC[C@H]2[C@@H]3CCC4=CC(=O)CC[C@]4(C)[C@H]3CC[C@]12C [Progesterone, reference compound]
Reported solubility [5]: 3.7* µM | solubility at 2 h (physchem): 5.1 µM (≈ 1.6 µg/mL)

Cc1ccc2nc(NC(=O)Cc3ccc4c(c3)OCCO4)sc2c1 [Ref. compound A, reference compound]
interaction with GPVI, Mean (GPVI; Compound concentration (1µM)): -9.78 pm | interaction with GPVI, Mean (GPVI; Compound concentration (10µM)): 1.91 pm | interaction profile with GPVI (in words) (GPVI; DMR): did not show a good interaction profile

O=C(Cc1ccc2c(c1)OCCO2)Nc1nc2c(Cl)cccc2s1 [Ref. compound B, reference compound]
interaction with GPVI, Mean (GPVI; Compound concentration (1µM)): 6.77 pm | interaction with GPVI, Mean (GPVI; Compound concentration (10µM)): -16.01 pm | interaction profile with GPVI (in words) (GPVI; DMR): did not show a good interaction profile

C[C@]12CC[C@H]3[C@@H](CCC4=CC(=O)CC[C@@]43C)[C@@H]1CC[C@@H]2O [Testosterone, reference compound]
% remanent (*) ([7]; Rat microsomes, (*) sampling time 60 min): 0.14% | half-life ([7]; rat, rat microsomes): 0.9 min | t1/2 [8]: 12.95 min | % remanent (*) ([8]; (*) sampling time 60 min): 4.02% | % remanent (*) ([9]; Dog microsomes, (*) sampling time 60 min): 49.1% | half-life ([9]; dog, dog microsomes): 59.9 min | microsomal CLint ([9]; dog, dog microsomes): 11.8 µL/min/mg | t1/2 [10]: 4.76 min | % remanent (*) ([10]; (*) sampling time 60 min): 0.06%

collagen related peptide [CRP]
interaction profile with GPVI (in words) (GPVI): robust dose-dependent response

From patent EP4420661B1, “SMALL MOLECULES TARGETING GLYCOPROTEIN VI AS ANTIPLATELET AGENTS FOR USE IN THE PREVENTION AND/OR TREATMENT OF THROMBOSIS AND ASSOCIATED PATHOLOGIES” (Universidade de Santiago de Compostela, priority 2023, dated 2024)
